Assay [1] concerns rabbit anti-cortisol serum. Put plainly: Competitive radioimmunoassay of cortisol in antiserum-coated plastic tubes (125I-cortisol tracer). It is filed as binding. The procedure: Urine samples are prepared for extraction by adding 200 microliters of a well mixed 24-hour urine sample to each of two disposable glass test tubes, one marked "S" and the other "E". The "E" tube is to be used to determine the efficiency of cortisol extraction from the sample. 10 microliters of cortisol standard serum (60 μg%) are mixed with the contents of the "E" tube, and 1.0 ml of chilled methylene chloride is then added to all tubes. The tubes are capped and their contents agitated to aid in the extraction of cortisol into the methylene chloride layer. After separation of the organic phase, duplicate 100 microliter aliquots of the bottom (methylene chloride) layer of each "S" and "E" tube are carefully removed and added to corresponding plastic test tubes coated with rabbit anti-cortisol serum on their lower inner surfaces, also correspondingly labeled "S" and "E". The methylene chloride is then evaporated from the four plastic test tubes by passing a stream of dry air or nitrogen into the tubes or by a mild warming of the extract to about 37° C. The tubes containing dry cortisol residue as prepared above are then assayed as follows.
A set of plastic test tubes coated with rabbit anti-cortisol serum is numbered 1-12. The "S" and "E" tubes from the preparatory steps above are numbered 13-14 and 15-16, respectively. 0.01 ml of the reagents shown in Table 1 below are added to the designated tubes. The cortisol serum blank which is added to each "S" and "E" tube ensures that the protein content of all tubes is equal.
1.0 ml of ^125 I-Cortisol 3-(0-carboxymethyl)oxime-L-tyrosine in pH 7.0-7.2 phosphate buffered saline having an activity of about 0.033 μCi/ml is added to each tube with gentle mixing. All tubes are incubated in a constant temperature water bath for 45 minutes at 37° C. The contents are removed from the tubes by aspirating or decanting and the tubes counted in a gamma counter with the window suitably adjusted for iodine-125.

The test system of assay [2] is diphenylhydantoin rabbit antiserum. Put plainly: Effect of organic solvents on antiserum-coated polypropylene tubes: residual binding of radioiodinated tracer, diphenylhydantoin antiserum. The conditions noted are these: tracer bound after solvent 3 hours at 50° C., tracer 45 minutes at 37° C. How it is done: (§1) 1 ml of petroleum ether, benzene, ether, ethyl acetate or acetone was added to a selection of cortisol, thyroxine, diphenylhydantoin and estriol rabbit antiserum-coated polypropylene tubes. The solvent level in the tubes was sufficient to immerse the antiserum coated region at the bottom of the tubes. The solvents were equilibrated with atmospheric water vapor. The solvent-containing tubes were then incubated for 3 hours at 50° C. The excess solvent was poured off and the tubes were left overnight to allow the residual solvent to evaporate. Three sets of control tubes were prepared. One set was treated with water in the same manner as the organic solvents, while another set was heated in air for the same period as the liquid-treated tubes. A final set of tubes served as an untreated control. The residual capacity of the antiserum-coated tubes to bind the respective radioiodinated tracers was determined by adding a 1 ml solution of the tracer containing 0.01 μCi to each tube containing an antiserum coating specific for that tracer, incubating for 45 minutes at 37° C., carefully decanting the tracer solution and counting the radioactivity bound to the tubes. The percent binding was calculated by dividing the bound counts by the total counts added.

Assay [3] concerns thyroxine rabbit antiserum. Kind of assay: Effect of organic solvents on antiserum-coated polypropylene tubes: residual binding of radioiodinated tracer, thyroxine antiserum. The following applies: tracer bound after solvent 3 hours at 50° C., tracer 45 minutes at 37° C. The procedure:
as §1

The subject of assay [4] is cortisol rabbit antiserum. Put plainly: Effect of organic solvents on antiserum-coated polypropylene tubes: residual binding of radioiodinated tracer, cortisol antiserum. The conditions noted are these: tracer bound after solvent 3 hours at 50° C., tracer 45 minutes at 37° C. The procedure: as §1
The next assay deals with estriol rabbit antiserum. Kind of assay: Effect of organic solvents on antiserum-coated polypropylene tubes: residual binding of radioiodinated tracer, estriol antiserum. The conditions noted are these: tracer bound after solvent 3 hours at 50° C., tracer 45 minutes at 37° C. How it is done: as §1
The subject of another assay is antitestosterone. Kind of assay: Standard curve for testosterone in antitestosterone-coated polypropylene tubes. It is filed as binding. The conditions noted are these: serum standards 0.1, 0.3, 1, 3 and 10 ng testosterone/ml, ethyl acetate extraction; 45 minutes at 37° C.; semi-logarithmic plot. The procedure:
0.6 ml of serum standards containing 0.1, 0.3, 1, 3 and 10 ng testosterone/ml were mixed with 3 ml of ethyl acetate. The phases were allowed to separate and 0.5 of the ethyl acetate layer was added to each of duplicate antitestosterone-coated tubes. After the ethyl acetate was evaporated under a stream of nitrogen, 1 ml of phosphate buffered saline at pH 7.4 was added to each tube and the testosterone residue dissolved. Five minutes later 0.1 ml of ^125 I-labeled testosterone tracer was added to each tube. After incubation for 45 minutes at 37° C., the solution was aspirated from each tube and the bound radioactivity determined in conventional fashion. […] The plot was satisfactory for use in the assay of testosterone unknowns.

Each structure is given as a SMILES string. Values joined by “and” are separate entries in the source; they are usually repeats but may differ in a detail not shown here. Identical values can stand only once.

`C[C@]12CCC(=O)C=C1CC[C@@H]1[C@@H]2[C@@H](O)C[C@@]2(C)[C@H]1CC[C@]2(O)C(=O)CO` [Cortisol, cortisol]: the “CPM Bound” value was 26,030 CPM and 25,305 CPM in assay [1] (Cortisol Serum Standard, 1.0 μg%, 100 pg/0.01 ml, 45 minutes at 37° C.); 22,083 CPM and 21,629 CPM in assay [1] (Cortisol Serum Standard, 3.0 μg%, 300 pg/0.01 ml, 45 minutes at 37° C.); 14,520 CPM and 14,698 CPM in assay [1] (Cortisol Serum Standard, 10 μg%, 1000 pg/0.01 ml, 45 minutes at 37° C.); 8,980 CPM and 9,071 CPM in assay [1] (Cortisol Serum Standard, 25 μg%, 2000 pg/0.01 ml, 45 minutes at 37° C.); 4,824 CPM and 5,025 CPM in assay [1] (Cortisol Serum Standard, 60 μg%, 6000 pg/0.01 ml, 45 minutes at 37° C.); 8,009 CPM and 7,526 CPM in assay [1] (urine extract "E" tubes 15-16 (cortisol-spiked), with Cortisol Serum Blank, 0 μg%). For the same compound, the “CPM Bound” value in assay [1] (urine extract "S" tubes 13-14, with Cortisol Serum Blank, 0 μg%) is 14,325 CPM and 15,110 CPM.
For the compound `c1ccccc1` [Benzene, benzene], the results for the “% Binding” value in assay [2], in assay [3] and in assay [4] were 34%, 52% and 56%, respectively.
For `CCOC(C)=O` [Ethyl Acetate, ethyl acetate], the “% Binding” value in assay [2] turned out to be 38%; in assay [3] it was 41%; in the assay with estriol rabbit antiserum it was 62%; in assay [4] it was 54%.
On to `CCOCC` [Ether, ether], for which the “% Binding” value was found to be 33% in assay [2], 41% in assay [3], 38% in the assay on estriol rabbit antiserum and 55% in assay [4].
As to `CC(C)=O` [Acetone, acetone], the “% Binding” value in assay [2] came out at 43%; in assay [3], 36%; in assay [4], 55%.
As to `C[C@]12CC[C@H]3[C@@H](CCC4=CC(=O)CC[C@@]43C)[C@@H]1CC[C@@H]2O` [testosterone], the “standard curve (bound radioactivity), in words” value in the assay on antitestosterone is “virtually straight-line standard curve”.
